Data as given in publication PMC12528448, “Resistance to CDK7 inhibitors directed by acquired mutation of a conserved residue in cancer cells” (The EMBO Journal, 2025).
Where “and” joins values, the source holds several entries; their conditions need not be identical. Identical values can stand only once.

Tests used:
22Rv1-SamR cells = experiment: Growth assay (SRB), Samuraciclib-resistant 22Rv1; format: cell-based, human; details: for % Growth: 22Rv1 SamR, 4 days, biological reps
Outline: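 For the SRB assay, cells were treated 2 days after seeding with increasing drug concentrations for 4 days, and IC50 came from non-linear regression. For the IncuCyte runs, drugs were added 2 days post-seeding, confluency was imaged every 6 h, and doubling times were fitted to an exponential growth equation.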

MCF7-CDK7-D97N cells = experiment: Growth assay (SRB), MCF7 CDK7-D97N knock-in; format: cell-based, human; details: for % Growth: MCF7 CDK7 D99N, biological reps
Outline: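 CRISPR-Cas9 knock-in lines were treated with increasing drug concentrations two days after seeding, then grown 4 days. Cell number by SRB staining; IC50 from non-linear regression.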

22Rv1-CDK7-D97N cells = experiment: Growth assay (SRB), 22Rv1 CDK7-D97N knock-in pool; format: cell-based, human; details: for % Growth: 22Rv1 CDK7 D99N
Protocol: (§1) To determine the IC50 of drug treatments on growth, cells were seeded in 96-well culture plates. Two days after seeding, the cells were treated with increasing concentrations of drugs and incubated for 4 days. Cell number was determined using the SRB assay (Skehan et al, [1990]), and IC50 values were calculated using non-linear regression curve fitting in GraphPad Prism v10. For all other growth experiments, cells were seeded into 96-well plates, and appropriate drugs were added 2 days after seeding. Cells were then incubated in an IncuCyte Zoom live-cell imager, with cell confluency measured every 6 h. Cell doubling times were determined by non-linear curve fitting (exponential growth equation) in GraphPad Prism v10.
(§2) Alt-R^TM S.p. Cas9 nuclease V3, Alt-R CRISPR-Cas9 crRNA, TracrRNA and the donor templates were obtained from Integrated DNA Technologies. […] Cells were treated with 0.7 µM of Alt-R HDR Enhancer V2 to improve HRD efficiency. Sequences of the CRISPRs in the crRNA and the donor templates are shown in the Reagents and tools table. Donor templates were designed to include non-coding substitutions to aid genome DNA PCR for identifying knock-in events and to facilitate cloning; these substitutions are noted in the Reagents and tools table.

LNCaP cells = experiment: Growth assay (SRB), LNCaP; format: cell-based, human
Protocol: as §1

LNCaP-CDK7-D97N cells = experiment: Growth assay (SRB), LNCaP CDK7-D97N knock-in; format: cell-based, human; details: for % Growth: LNCaP CDK7 D99N
Protocol: as §1, §2

CDK7-D97N = molecular target: T1, CDK7-D97N (Homo sapiens, UniProt P50613, D97N); experiment: NanoBRET Target Engagement assay, K-10 tracer displacement in HEK293 cells; format: binding; details: for % Occupacy: CDK7 D97N, replicates N1-N3
T1 construct: expressed in transfected cells; host or cells: HEK293
T1 sequence (P50613 whole entry D97N): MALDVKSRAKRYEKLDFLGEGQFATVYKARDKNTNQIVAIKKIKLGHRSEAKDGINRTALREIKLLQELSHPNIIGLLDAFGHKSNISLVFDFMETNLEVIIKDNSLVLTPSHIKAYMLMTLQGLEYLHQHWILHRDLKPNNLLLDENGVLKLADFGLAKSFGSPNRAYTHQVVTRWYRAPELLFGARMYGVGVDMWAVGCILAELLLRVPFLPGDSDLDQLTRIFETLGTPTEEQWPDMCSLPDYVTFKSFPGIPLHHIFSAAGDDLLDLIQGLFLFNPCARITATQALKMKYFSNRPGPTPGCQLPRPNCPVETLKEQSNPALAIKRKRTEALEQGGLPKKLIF
Protocol: (§3) Energy transfer between the NanoLuc fusion protein and a cell-permeable fluorescent energy transfer probe facilitates quantitative determination of target engagement in live cells (Wells et al, [2020]). Assays were conducted according to this previous report, using the optimal CDK7 probe, K-10, at a concentration of 0.5 µM.
(§4) CDK4, CDK6 and CDK7 and the respective mutant sequences, obtained as synthesised DNA fragments from IDT (Leuven), were cloned by HiFi DNA assembly (New England Biolabs) into the pNLF1-N NanoLuc protein fusion vector (Promega). HEK293 cells, transiently transfected with NanoLuc-CDK fusion constructs, were used for activity determination, utilising the NanoBRET Target Engagement Intracellular Kinase Assay. A CCND1 expression construct was co-transfected with the NanoLuc-CDK4 and NanoLuc-CDK6 fusion constructs. The recommended cell-permeable energy transfer probe, K-10, was used to assess target engagement, as detailed in the manufacturer’s methods (Promega). […] The BRET ratio (mBU) was calculated as acceptor emission (590–610 nm)/donor emission (410–490 nm) × 1000. The mBU values were plotted against the energy probe concentrations to determine maximal binding (Bmax) and Kd values. BRET signal competition by CDK inhibitors was used to determine compound binding to WT and mutant CDKs. […] Inhibitor binding was determined using a fourfold dilution series. mBU values were plotted against test compound concentrations in the presence of K10 tracer. EC50 values were determined using nonlinear regression curve-fitting. Test compound occupancy (%) was calculated using the equation [1 − (x − z)/(y − z)] × 100, where x = mBU in the presence of the test compound and K-10 tracer, y = mBU with K-10 tracer and vehicle control, and z = mBU in the absence of the K-10 tracer or test compound (Wells et al, [2020]).

CDK7-WT = molecular target: T2, CDK7-WT (Homo sapiens, UniProt P50613); experiment: as above; format: binding; details: for % Occupacy: CDK7 WT, replicates N1-N3
T2 construct: expressed in transfected cells; host or cells: HEK293
T2 sequence (P50613 whole entry): as the sequence (P50613 whole entry D97N) above, with N97D counted along it
Protocol: as §3, §4

CN(C)C/C=C/C(=O)Nc1ccc(C(=O)N[C@@]2(C)CCC[C@@H](Nc3ncc(Cl)c(-c4c[nH]c5ccccc45)n3)C2)nc1 [SY-1365]
Sensitivity in growth assays (22Rv1-SamR cells; 22Rv1-SamR): remained sensitive | Resistance (Fold), fold increase in IC50 of 22Rv1-SamR relative to 22Rv1 (22Rv1-SamR cells; 22Rv1-SamR vs 22Rv1): 1.0 fold | % Growth (22Rv1-SamR cells; Log10 Conc. (nM) 0.09): 50.67% and 45.27% | % Growth (22Rv1-SamR cells; Log10 Conc. (nM) 0.69): 34.60% and 27.89% | % Growth (22Rv1-SamR cells; Log10 Conc. (nM) 1.29): 26.06% and 19.62% | % Growth (22Rv1-SamR cells; Log10 Conc. (nM) 1.89): -2.71% and -9.74% | % Growth (22Rv1-SamR cells; Log10 Conc. (nM) 2.49): -0.26% and -8.99% | % Growth (22Rv1-SamR cells; Log10 Conc. (nM) -0.52): 81.58% and 73.70% | % Growth (22Rv1-SamR cells; Log10 Conc. (nM) -1.12): 90.71% and 90.62% | Resistance (Fold) (MCF7-CDK7-D97N cells; MCF7-CDK7-D97N vs MCF7 WT): 0.19 fold | IC50 (MCF7-CDK7-D97N cells; MCF7-CDK7-D97N, 4 days, SRB): 0.17 nM | % Growth (MCF7-CDK7-D97N cells; Log10 Conc. (nM) 3.70, 4 days): -16.61% | % Growth (MCF7-CDK7-D97N cells; Log10 Conc. (nM) -1.12, 4 days): 78.15% and 70.71% and 82.37% and 82.39% | % Growth (MCF7-CDK7-D97N cells; Log10 Conc. (nM) -1.72, 4 days): 83.93% and 103.71% and 98.90% | Sensitivity in growth assays (22Rv1-CDK7-D97N cells; 22Rv1-CDK7-D97N vs parental): remaining sensitive | % Growth (22Rv1-CDK7-D97N cells; Log10 Conc. (nM) 0.09): 48.76% and 39.48% | % Growth (22Rv1-CDK7-D97N cells; Log10 Conc. (nM) 0.69): 32.85% and 26.42% | % Growth (22Rv1-CDK7-D97N cells; Log10 Conc. (nM) 1.29): 16.40% and 13.77% | % Growth (22Rv1-CDK7-D97N cells; Log10 Conc. (nM) 1.89): -9.18% and -1.73% | % Growth (22Rv1-CDK7-D97N cells; Log10 Conc. (nM) 3.70): -12.72% | % Growth (22Rv1-CDK7-D97N cells; Log10 Conc. (nM) -0.52): 87.25% and 62.47% | % Growth (22Rv1-CDK7-D97N cells; Log10 Conc. (nM) -1.12): 95.17% and 93.47% | % Growth (22Rv1-CDK7-D97N cells; Log10 Conc. (nM) -1.72): 98.87% | % Growth (LNCaP cells; Log10 Conc. (nM) 0.09): 56.73% and 37.69% | % Growth (LNCaP cells; Log10 Conc. (nM) 1.29): 1.68% and -7.82% | % Growth (LNCaP cells; Log10 Conc. (nM) 2.49): -22.61% and -22.62% | % Growth (LNCaP cells; Log10 Conc. (nM) 3.70): -23.75% | % Growth (LNCaP cells; Log10 Conc. (nM) -0.52): 84.52% and 77.18% | % Growth (LNCaP cells; Log10 Conc. (nM) -1.12): 86.80% and 137.61% | % Growth (LNCaP cells; Log10 Conc. (nM) -1.72): 105.02% | % Growth (LNCaP-CDK7-D97N cells; Log10 Conc. (nM) 0.09): 63.76% and 49.89% | % Growth (LNCaP-CDK7-D97N cells; Log10 Conc. (nM) 0.69): 29.39% and 16.32% | % Growth (LNCaP-CDK7-D97N cells; Log10 Conc. (nM) 1.29): 15.69% and 13.01% | % Growth (LNCaP-CDK7-D97N cells; Log10 Conc. (nM) 1.89): -2.84% and -7.62% | % Growth (LNCaP-CDK7-D97N cells; Log10 Conc. (nM) 2.49): -7.57% and -9.89% | % Growth (LNCaP-CDK7-D97N cells; Log10 Conc. (nM) 3.10): -8.80% and -12.02% | % Growth (LNCaP-CDK7-D97N cells; Log10 Conc. (nM) 3.70): -8.97% | % Growth (LNCaP-CDK7-D97N cells; Log10 Conc. (nM) -0.52): 95.67% and 71.20% | % Growth (LNCaP-CDK7-D97N cells; Log10 Conc. (nM) -1.12): 99.75% and 96.82% | % Growth (LNCaP-CDK7-D97N cells; Log10 Conc. (nM) -1.72): 90.05% | Sensitivity in growth assays (LNCaP-CDK7-D97N cells; LNCaP-CDK7-D97N vs parental): remaining sensitive | EC50 (CDK7-D97N; CDK7-D97N, K-10 0.5 µM, HEK293): 31.3 nM | % Occupacy (CDK7-D97N; Log10 Conc. (nM) 0.09): 2.93% and 3.17% and -0.97% | % Occupacy (CDK7-D97N; Log10 Conc. (nM) 0.69): 10.17% and 10.16% and 4.41% | % Occupacy (CDK7-D97N; Log10 Conc. (nM) 1.29): 36.69% and 35.14% and 27.40% | % Occupacy (CDK7-D97N; Log10 Conc. (nM) 1.89): 86.86% and 82.26% and 69.03% | % Occupacy (CDK7-D97N; Log10 Conc. (nM) 2.49): 95.98% and 95.66% and 91.52% | % Occupacy (CDK7-D97N; Log10 Conc. (nM) 3.10): 98.50% and 98.01% and 96.95% | % Occupacy (CDK7-D97N; Log10 Conc. (nM) 3.70): 100.42% and 100.34% and 99.95% | % Occupacy (CDK7-D97N; Log10 Conc. (nM) 4.30): 97.72% and 96.80% and 96.75% | % Occupacy (CDK7-D97N; Log10 Conc. (nM) -0.52): -0.36% and 0.88% and 0.71% | % Occupacy (CDK7-D97N; Log10 Conc. (nM) -1.12): 3.66% and 1.72% and -0.86% | % Occupacy (CDK7-D97N; Log10 Conc. (nM) -1.72): 3.68% and 0.83% and -1.37% | Difference in EC50 values for mutant and WT CDK7 (CDK7-D97N; NanoBRET): no significant difference | EC50 (CDK7-WT; CDK7-WT, K-10 0.5 µM, HEK293): 29 nM | % Occupacy (CDK7-WT; Log10 Conc. (nM) 0.09): 5.29% and 2.02% and 1.09% | % Occupacy (CDK7-WT; Log10 Conc. (nM) 0.69): 14.34% and 11.55% and 9.36% | % Occupacy (CDK7-WT; Log10 Conc. (nM) 1.29): 40.53% and 32.34% and 29.30% | % Occupacy (CDK7-WT; Log10 Conc. (nM) 1.89): 74.64% and 88.34% and 86.64% | % Occupacy (CDK7-WT; Log10 Conc. (nM) 2.49): 98.27% and 99.01% and 95.02% | % Occupacy (CDK7-WT; Log10 Conc. (nM) 3.10): 99.51% and 100.88% and 97.39% | % Occupacy (CDK7-WT; Log10 Conc. (nM) 3.70): 102.75% and 104.94% and 102.49% | % Occupacy (CDK7-WT; Log10 Conc. (nM) 4.30): 86.99% and 86.89% and 86.73% | % Occupacy (CDK7-WT; Log10 Conc. (nM) -0.52): 10.37% and -0.26% and 2.09% | % Occupacy (CDK7-WT; Log10 Conc. (nM) -1.12): 9.68% and 0.78% and 5.84% | % Occupacy (CDK7-WT; Log10 Conc. (nM) -1.72): 8.54% and -2.37% and 7.63%
